Earlier results, collected in patent EP1566168A1, “Dermo-cosmetic compositions for depigmenting and use of it” (priority 2004, dated 2005).

Legend:
peau = settings: applied to the skin
[1] = oil

Compound: CCCCCCCCCCCCCCCC(=O)OCc1cc(=O)c(OC(=O)CCCCCCCCCCCCCCC)co1 [acide dipalmitoylkojique, 2-palmitoyloxy 5-palmitoyloxy γ-pyrone]
- propriétés irritantes (peau): dépourvu de propriétés irritantes
- solubilité [1]: soluble dans l'huile
